Experimental data taken from paper PMC9081329, “Pharmacokinetics, Mass Balance, Excretion, and Tissue Distribution of Plasmalogen Precursor PPI-1011” (Frontiers in Cell and Developmental Biology, 2022).

Experiment: Repeat dose tissue distribution study (QWBA, LSC of blood and plasma), 15 daily doses
Type: in vivo, Sprague-Dawley rats
Experimental: Three male rats were administered [^14C]PPI-1011 at 100 mg/kg (100 μCi/kg) once daily for 15 days. One rat was sacrificed at each of the following time points after the administration of the day 15 dose: 24, 48, and 96 h. Terminal blood was collected by cardiac puncture directly into tubes with K2EDTA, an aliquot was stored at 4°C until LSC was performed for radioactivity, while the remaining blood was processed to plasma and stored at −20°C until LSC. Following blood collection, the carcasses were frozen in a cold bath with hexanes and dry ice for at least 8 min and then dried and stored at −70°C for at least 12 h. The carcasses were transferred to a −20°C freezer for at least 12 h before embedding.
QWBA was used to determine radioactivity concentrations in the caecum (contents and mucosa), large intestine (contents and mucosa), small intestine (contents and mucosa), stomach (contents and mucosa), brain, choroid plexus, spinal cord, bone, skin, adrenal gland, pineal body, pituitary gland, thyroid gland, liver, kidney (cortex, medulla and whole kidney), urinary bladder (contents and wall), brown fat, white fat, eye (lens, uveal tract and whole eye), epididymis, prostate gland, testis, ovary, uterus, lung, exorbital lachrymal gland, Harderian gland, pancreas, salivary gland, skeletal muscle, myocardium, cardiac blood, bone marrow, lymph node, spleen, and thymus. As well, LSC was used to determine the total radioactivity in the whole blood and plasma.
The whole-body cryosectioning technique described by ([Ullberg, 1977]) was the basis for embedding and cryosectioning the rats assigned to this study. Each frozen carcass was shaved, and then the limbs and tail were removed prior to embedding. Chilled (4°C) 3% CMC (low viscosity) was utilized to provide a firm support of reinforced ice around each rat and for a secure attachment to the microtome stage. Upon thorough freezing of the embedding medium surrounding each rat, the frozen CMC block was removed from the freezing bath and four 3/8 inch holes were drilled into the block. One cryosection quality control standard (CQCS) was prepared with a known amount of radioactivity and at least 1 ml aliquots were added to each of the four drilled holes. CQCS data were utilized to evaluate the overall performance of the QWBA assay.
Each frozen rat was sagittally trimmed (50–100 μm) at −20°C until exposure of a few target tissues employing a Leica Cryomacrocut heavy-duty microtome (Leica Microsystems Inc.,). Disposable stainless steel Feather type H45L knives (Feather Safety Razor Co., Ltd.) were utilized for trimming and sectioning each frozen rat. Several thinner sections (50 μm) were discarded prior to obtaining multiple 50 μm sections at various cryosectioning levels for QWBA analysis. Upon the collection of at least 60 target tissues in multiple cryosectioning levels, the cryosections were kept in the Cryomacrocut cryochamber for a minimum of 18 h for dehydration depending upon the number of cryosections within the cryochamber. After dehydration was complete, the cryosections were transferred to ambient temperature for processing. Mounted whole-body cryosections and a set of 15 standards were sandwiched between a standard phosphor screen and an exposure cassette. All cryosections were exposed to the phosphor screen for 4-days in a cabinet protected with lead prior to scanning using a Typhoon PhosphorImager (Cytiva). MCID™ Analysis software (InterFocus Ltd.) was utilized to generate a calibration curve of the STD nominal concentrations (nCi/g) versus PhosphorImager response (counts/μm^2 minus background) by weighted (1/x) linear regression analysis ([Potchoiba et al., 1995]; [Potchoiba et al., 1998]). The linear regression curve was then utilized to determine the concentration (nCi/g) of total radioactivity in whole-body tissues and blood. Radioactivity concentrations were expressed as μg Eq/g based on the specific activity of the compound in the final dose formulations. […]

[1] = 48 hr post 15 daily oral 100 mg/kg
[2] = 96 hr post 15 daily oral 100 mg/kg

Structure (SMILES): CC/C=C\C/C=C\C/C=C\C/C=C\C/C=C\C/C=C\CCC(=O)O[C@H](CO[14CH2]CCCCCCCCCCCCCCC)COC(=O)CCCCC1CCSS1 (some centres unmarked) [[^14C]PPI-1011]
- Radioactivity concentration, Colliculus [1]: 68.0 μg equivalents/g
- Radioactivity concentration, Diaphragm [1]: 172 μg equivalents/g
- Radioactivity concentration, Esophagus [1]: 94.8 μg equivalents/g
- Radioactivity concentration, Exorbital Lacrimal Gland [1]: 82.5 μg equivalents/g
- Radioactivity concentration, Gastric Mucosa [1]: 307 μg equivalents/g
- Radioactivity concentration, Harderian Gland [1]: 69.6 μg equivalents/g
- Radioactivity concentration, Intra-Orbital Lacrimal Gland [1]: 84.5 μg equivalents/g
- Radioactivity concentration, Kidney [1]: 221 μg equivalents/g
- Radioactivity concentration, Large Intestines [1]: 122 μg equivalents/g
- Radioactivity concentration, Liver [1]: 186 μg equivalents/g
- Radioactivity concentration, Lung [1]: 181 μg equivalents/g
- Radioactivity concentration, Lymph Node [1]: 165 μg equivalents/g
- Radioactivity concentration, Medulla Oblongata [1]: 48.4 μg equivalents/g
- Radioactivity concentration, Muscle [1]: 95.4 μg equivalents/g
- Radioactivity concentration, Myocardium [1]: 222 μg equivalents/g
- Radioactivity concentration, Nasal Turbinates [1]: 184 μg equivalents/g
- Radioactivity concentration, Ocular - Lens [1]: 5.05 μg equivalents/g
- Radioactivity concentration, Ocular - Uveal Tract [1]: 59.6 μg equivalents/g
- Radioactivity concentration, Ocular - Vitreous Body [1]: 2.01 μg equivalents/g
- Radioactivity concentration, Ocular - Whole Eye [1]: 15.8 μg equivalents/g
- Radioactivity concentration, Olfactory Bulb [1]: 35.0 μg equivalents/g
- Radioactivity concentration, Pancreas [1]: 312 μg equivalents/g
- Radioactivity concentration, Parotid Gland [1]: 257 μg equivalents/g
- Radioactivity concentration, Pineal Gland [1]: 156 μg equivalents/g
- Radioactivity concentration, Pituitary Gland [1]: 226 μg equivalents/g
- Radioactivity concentration, Prostate [1]: 72.1 μg equivalents/g
- Radioactivity concentration, Renal Cortex [1]: 244 μg equivalents/g
- Radioactivity concentration, Renal Medulla [1]: 183 μg equivalents/g
- Radioactivity concentration, Salivary Gland [1]: 271 μg equivalents/g
- Radioactivity concentration, Seminal Vesicles [1]: 60.7 μg equivalents/g
- Radioactivity concentration, Skin - Non-Pigmented [1]: 101 μg equivalents/g
- Radioactivity concentration, Small Intestines [1]: 164 μg equivalents/g
- Radioactivity concentration, Spinal Cord [1]: 51.2 μg equivalents/g
- Radioactivity concentration, Spleen [1]: 209 μg equivalents/g
- Radioactivity concentration, Stomach [1]: 78.9 μg equivalents/g
- Radioactivity concentration, Testis [1]: 47.2 μg equivalents/g
- Radioactivity concentration, Thalamus [1]: 42.3 μg equivalents/g
- Radioactivity concentration, Thymus [1]: 131 μg equivalents/g
- Radioactivity concentration, Thyroid [1]: 297 μg equivalents/g
- Radioactivity concentration, Whole Brain [1]: 43.7 μg equivalents/g
- Radioactivity concentration, Adipose - Brown [2]: 1301 μg equivalents/g
- Radioactivity concentration, Adipose - Brown (Vessel Wall) [2]: 1249 μg equivalents/g
- Radioactivity concentration, Adipose - Subcutaneous [2]: 1373 μg equivalents/g
- Radioactivity concentration, Adipose - Visceral [2]: 1265 μg equivalents/g
- Radioactivity concentration, Adrenal Gland [2]: 1636 μg equivalents/g
- Radioactivity concentration, Bladder Wall [2]: 101 μg equivalents/g
- Radioactivity concentration, Blood - QWBA [2]: 29.5 μg equivalents/g
- Radioactivity concentration, Bone Marrow [2]: 77.3 μg equivalents/g
- Radioactivity concentration, Bone Surface [2]: 10.5 μg equivalents/g
- Radioactivity concentration, Cerebellum [2]: 55.8 μg equivalents/g
- Radioactivity concentration, Cerebrum [2]: 47.5 μg equivalents/g
- Radioactivity concentration, Choroid Plexus [2]: 121 μg equivalents/g
- Radioactivity concentration, Colliculus [2]: 67.3 μg equivalents/g
- Radioactivity concentration, Diaphragm [2]: 125 μg equivalents/g
- Radioactivity concentration, Esophagus [2]: 87.1 μg equivalents/g
- Radioactivity concentration, Exorbital Lacrimal Gland [2]: 71.0 μg equivalents/g
- Radioactivity concentration, Gastric Mucosa [2]: 210 μg equivalents/g
- Radioactivity concentration, Harderian Gland [2]: 47.9 μg equivalents/g
- Radioactivity concentration, Intra-Orbital Lacrimal Gland [2]: 76.5 μg equivalents/g
- Radioactivity concentration, Kidney [2]: 238 μg equivalents/g
- Radioactivity concentration, Large Intestines [2]: 94.3 μg equivalents/g
- Radioactivity concentration, Liver [2]: 129 μg equivalents/g
- Radioactivity concentration, Lung [2]: 191 μg equivalents/g
- Radioactivity concentration, Lymph Node [2]: 127 μg equivalents/g
- Radioactivity concentration, Medulla Oblongata [2]: 51.8 μg equivalents/g
- Radioactivity concentration, Muscle [2]: 97.9 μg equivalents/g
- Radioactivity concentration, Myocardium [2]: 172 μg equivalents/g
- Radioactivity concentration, Nasal Turbinates [2]: 80.2 μg equivalents/g
- Radioactivity concentration, Ocular - Lens [2]: 6.92 μg equivalents/g
- Radioactivity concentration, Ocular - Uveal Tract [2]: 68.9 μg equivalents/g
- Radioactivity concentration, Ocular - Vitreous Body [2]: 2.06 μg equivalents/g
- Radioactivity concentration, Ocular - Whole Eye [2]: 18.2 μg equivalents/g
- Radioactivity concentration, Olfactory Bulb [2]: 42.2 μg equivalents/g
- Radioactivity concentration, Pancreas [2]: 333 μg equivalents/g
- Radioactivity concentration, Parotid Gland [2]: 220 μg equivalents/g
- Radioactivity concentration, Pineal Gland [2]: 179 μg equivalents/g
- Radioactivity concentration, Pituitary Gland [2]: 191 μg equivalents/g
- Radioactivity concentration, Prostate [2]: 84.8 μg equivalents/g
- Radioactivity concentration, Renal Cortex [2]: 250 μg equivalents/g
- Radioactivity concentration, Renal Medulla [2]: 186 μg equivalents/g
- Radioactivity concentration, Salivary Gland [2]: 227 μg equivalents/g
- Radioactivity concentration, Seminal Vesicles [2]: 54.7 μg equivalents/g
- Radioactivity concentration, Skin - Non-Pigmented [2]: 129 μg equivalents/g
- Radioactivity concentration, Small Intestines [2]: 112 μg equivalents/g
- Radioactivity concentration, Spinal Cord [2]: 53.0 μg equivalents/g
- Radioactivity concentration, Spleen [2]: 147 μg equivalents/g
- Radioactivity concentration, Stomach [2]: 109 μg equivalents/g
- Radioactivity concentration, Testis [2]: 43.3 μg equivalents/g
- Radioactivity concentration, Thalamus [2]: 45.4 μg equivalents/g
- Radioactivity concentration, Thymus [2]: 107 μg equivalents/g
- Radioactivity concentration, Thyroid [2]: 259 μg equivalents/g
- Radioactivity concentration, Whole Brain [2]: 47.3 μg equivalents/g
- Decline of radioactivity from peak concentration, subcutaneous adipose (by 96 HPD, 15 daily doses): ~1.1 fold
- Decline of radioactivity from peak concentration, visceral adipose (by 96 HPD, 15 daily doses): ~1.2 fold
- Uptake in the brain following 15 doses versus single dose, on average (rat, in vivo): 16-18 times
